Source: patent US12661382B2, “Method for obtaining oleocanthal type secoiridoids and for producing respective pharmaceutical preparations” (OMPHAX SA, priority 2019, dated 2026)

assay: water solubility; type: physicochemical

Question: With ligstrodiol [Substance 12] as the substance, how does the “water solubility with respect to substances (1-6)” value (shortened to “water solubility”) read?
Answer: greatly increased water solubility

Question: With 5S-(E)-oleomissionadiol [Substance 9] as the substance, how does the “water solubility” value read?
Answer: greatly increased water solubility

Question: For S-(E)-oleaceinediol [Substance 8], which “water solubility” value is on record?
Answer: greatly increased water solubility

Question: Which “water solubility” value does the source give for oleuropeinediol [Substance 11] here?
Answer: greatly increased water solubility

Question: With 5S-(E)-oleokoronadiol [Substance 10] as the substance, how does the “water solubility” value read?
Answer: greatly increased water solubility

Question: Which “water solubility” value does the source give for S-(E)-oleocanthadiol [Substance 7] here?
Answer: greatly increased water solubility
